Source: patent publication US20240182472A1, “INDAZOLE PYRIDONE COMPOUNDS AND USES THEREOF” (Bluejay Therapeutics, Inc., priority 2022, published 2024)
Where two headings read alike, the source gives them in different places.

Columns and labels:
[1] = cited from earlier work
[2] = monkeys, starting at 4 weeks, more pronounced effect at 13 weeks; cited from earlier work
HBV S-antigen secretion = test: HBsAg assay (HepG2 HBV S-antigen secretion biological assay); type: cell-based; conditions: Hepatitis B virus, HepG2.2.15, 72 h, read-out: EC50, HBV S-antigen secretion
Experimental: HepG2.2.15 cells were grown in flasks microscopically and seeded into 96-well plates at a concentration of 6.0×10^4 cells/well and incubated at 37° C., 5% CO2 overnight.
Source plate preparation. The stock concentration of reference compound and test compounds is 20 mM. Firstly, manually diluted the compound to obtain the first concentration points of 10 μM and 200 μM, respectively. Then a 3-fold, 8 points serial dilution is performed to obtain the 200× source plate.
Source plate compounds were pipetted as follows: 3 μL 200× source plate compounds into sterile 2 mL 96 well plate which contain 297 μL 2% FBS Medium, mix well and transfer 100 μL/well to corresponding cell culture plates. Therefore, the test conditions of the final compounds is 1 μM initiation, 3-fold serial dilution, and 8 concentration points in duplicate.
Incubate the cells at 37° C., 5% CO2 for three days.
24 hours post-seeding, the cells were treated with 200 μl/well of media containing serially diluted compounds in DMSO. DMSO alone was used as the no drug control. The final DMSO concentration in all wells was 0.5%.
The HBsAg kit (Auto Biology-CL 0310) was used to determine the level of secreted HBVsAg. The HBSAg assay was performed as follows: • a) Blance the ELISA kit at room temperature for 30 minutes. • b) Add 50 μL standard solution, sample, positive and negative control to each well of the microplate in the kit. • c) Add 50 μL HBsAg enzyme conjugate to each well. • d) Attach the plate membrane, oscillate for 60 seconds, and incubate at 37° C. for 60 minutes. • e) Add 350 μL washing buffer to each well, shake slightly, discard liquid, repeat 6 times. Then pat 5 times on an absorbent paper towel to dry the hole. • f) Add 50 μL mixture of reagent A and B to each well. Oscillate the microplate for 10 seconds. • g) Cover the plate membrane and incubate at room temperature for 10 minutes. Read the luminescent signal using Biotek-Synergy 2.
Compounds inhibition against HBsAg at different concentrations are calculated by the following formula:
Inhibition %=(1−value of sample/ave. value of control)×100
50% effective concentrations (EC50) and were calculated with the GraphPad Prism software.

OATP1B1 = target: T1, OATP1B1 (Homo sapiens, UniProt Q9Y6L6); type: in vitro ADME
T1 construct: host or cells: HEK293 (HEK293-OATP1B1), stably transfected
T1 sequence (Q9Y6L6 1-691): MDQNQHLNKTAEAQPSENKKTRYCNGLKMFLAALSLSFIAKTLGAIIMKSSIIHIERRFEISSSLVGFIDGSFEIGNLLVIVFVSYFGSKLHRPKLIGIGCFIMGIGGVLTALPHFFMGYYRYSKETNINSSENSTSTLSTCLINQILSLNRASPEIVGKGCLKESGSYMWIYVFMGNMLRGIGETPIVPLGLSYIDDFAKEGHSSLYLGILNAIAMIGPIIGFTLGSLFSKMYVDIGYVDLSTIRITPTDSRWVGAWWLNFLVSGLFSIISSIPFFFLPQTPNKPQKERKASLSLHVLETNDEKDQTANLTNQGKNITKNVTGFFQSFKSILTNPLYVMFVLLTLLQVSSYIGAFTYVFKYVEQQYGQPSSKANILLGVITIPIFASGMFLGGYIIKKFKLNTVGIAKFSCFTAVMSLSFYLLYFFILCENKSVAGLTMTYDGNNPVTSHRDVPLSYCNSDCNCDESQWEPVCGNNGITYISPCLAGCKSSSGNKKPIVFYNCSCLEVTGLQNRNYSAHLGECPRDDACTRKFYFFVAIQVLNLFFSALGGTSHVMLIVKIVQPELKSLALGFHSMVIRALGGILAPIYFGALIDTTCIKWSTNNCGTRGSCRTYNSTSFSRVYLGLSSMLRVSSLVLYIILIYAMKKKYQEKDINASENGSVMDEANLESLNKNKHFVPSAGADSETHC
Experimental: (§1) The OATP1B1 and OATP1B3 substrate assays were conducted at Wuxi utilizing the human embryonic kidney cell line, HEK293, stably transfected with human transporter genes. The identification of potential transporter substrates are achieved by measuring the Uptake Fold values in the transfected HEK293-OATP1B1 and OATP1B3 cells line and the HEK293-MOCK cell line in the Presence and Absence of positive inhibitors.
(§2) The objective of this study was to determine whether Compound I.2 and Compound I.6 are potential OATP1B1 and OATP1B3 uptake substrates.
(§3) HEK-293 cells stably expressing the human OATP1B1 and OATP1B3 transporter and the HEK293-MOCK cell line were licensed from GenoMembrane (Kanagawa, Japan). The culture medium was DMEM (HEK293-OATP1B3 cells were maintained in DMEM/F12) supplemented with 10.0% FBS, 500 μg/mL G418 sulfate solution, 100 U/mL penicillin-G and 100 μg/mL streptomycin. Cells were incubated in 5.0% CO2 at 37.0° C. with saturated humidity. HEK293-OATP1B1 (Passage: 19), OATP1B3 (Passage: 19), and HEK293-MOCK (Passage: 14 and 16) were grown to 80.0 to 90.0% confluence in the culture flask. Trypsin/EDTA (0.05%/0.02%, w/v) was added to detach the cells from the flask. The cells were seeded onto 96-well plates with a density of 5.00×10^4 cells/well, and then incubated for 24 hours in 5.0% CO2 at 37.0° C. with saturated humidity before being used in the uptake study.
(§4) Pre-incubation: Cell culture medium was removed from the 96-well plates seeded with either HEK293-OATP1B1 and OATP1B3 or HEK293-MOCK cells, followed by rinsing the cells twice with the warm (37.0° C.) Transport Buffer. The cells were then pre-incubated for 30 min with the Transport Buffer in the Presence and Absence of positive inhibitors in 5.0% CO2 at 37.0° C. with saturated humidity.
(§5) Uptake incubation: At the end of the pre-incubation, the buffers were removed and the cells were treated with Compound I.6 or Compound I.2 at 0.100 or 1.00 μM in the presence and absence of positive inhibitor. In separate wells, the marker substrate for transporter cells were incubated with dosing solution (Table A), all treatments were conducted in triplicate wells in 5.0% CO2 at 37.0° C. with saturated humidity.
(§6) Cell lysing: At the end of the incubations, dosing solution was removed. After removing the remaining dosing solution, the cell was rinsed three times with ice-cold Transport Buffer (2.0-8.0° C.) followed by adding 100 μL cold acetonitrile:methanol (95: 5, v: v) containing internal standard into the cells treated with test compound for bioanalysis. For the cells dosed with positive control, the cells were added 100 μL cold acetonitrile:methanol (95:5, v: v) containing internal standard for bioanalysis. All samples were gently shaken for 30 min. Then for test compound and positive control, 75 μL of the cell lysate was mixed with 75 μL of Transport Buffer and 150 μL of cold acetonitrile:methanol (95:5, v:v) containing internal standard. The lysis sample was centrifuged for 10 min at 3220×g before the supernatant, defined as the terminal sample, was taken for the determination of the intracellular uptake of the test compounds or substrate by LC-MS/MS.
(§7) Uptake Fold was calculated using equation (1)

OATP1B3 = target: T2, OATP1B3 (Homo sapiens, UniProt Q9NPD5); type: in vitro ADME
T2 construct: host or cells: HEK293 (HEK293-OATP1B3), stably transfected
T2 sequence (Q9NPD5 1-702): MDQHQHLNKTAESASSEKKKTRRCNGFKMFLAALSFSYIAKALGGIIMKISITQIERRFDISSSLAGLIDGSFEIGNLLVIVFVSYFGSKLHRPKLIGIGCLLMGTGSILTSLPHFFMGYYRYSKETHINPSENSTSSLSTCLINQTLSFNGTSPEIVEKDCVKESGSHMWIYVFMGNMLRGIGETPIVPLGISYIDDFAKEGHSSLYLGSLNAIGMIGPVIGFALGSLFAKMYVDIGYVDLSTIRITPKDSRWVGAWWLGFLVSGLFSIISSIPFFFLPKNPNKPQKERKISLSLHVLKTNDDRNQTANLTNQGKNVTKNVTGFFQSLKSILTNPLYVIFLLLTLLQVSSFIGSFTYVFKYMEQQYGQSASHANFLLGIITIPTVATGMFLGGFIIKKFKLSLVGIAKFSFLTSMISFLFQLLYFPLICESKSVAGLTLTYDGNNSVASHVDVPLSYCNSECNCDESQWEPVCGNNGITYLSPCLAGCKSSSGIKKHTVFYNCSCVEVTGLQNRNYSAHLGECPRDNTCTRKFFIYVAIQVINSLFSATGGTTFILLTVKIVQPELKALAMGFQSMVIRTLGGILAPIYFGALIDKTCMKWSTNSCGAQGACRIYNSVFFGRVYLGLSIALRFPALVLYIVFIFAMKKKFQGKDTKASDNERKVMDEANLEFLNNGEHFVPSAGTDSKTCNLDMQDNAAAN
Experimental: as §1, §2, §3, §4, §5, §6, §7

Structure (SMILES)	change from baseline of rat caudal nerve NCV, digital NCV, cauda equina latency, digital latency, tibial nerve latency ([1]; 13 weeks, daily doses 20 MPK/day and 60 MPK/day)	nerve conduction velocity (NCV) of several peripheral nerves ([1]; rats, starting at 4 weeks, more pronounced effect at 13 weeks)	nerve conduction velocity (NCV) of several peripheral nerves [2]	EC50 (HBV S-antigen secretion) [nM]	Uptake ratio (OATP1B1; 0.1 μM)	Uptake ratio (OATP1B1; 1 μM)	Uptake ratio (OATP1B3; 0.1 μM)	Uptake ratio (OATP1B3; 1 μM)
COCCOc1cc2c(cc1COC)-c1cc(=O)c(C(=O)O)cn1N1[C@@H]2CCC1(C)C [GS-8873]	greater than 20%	prolong the nerve conduction velocity	prolong the nerve conduction velocity	–	–	–	–	–
CC(C)(C)[C@@H]1Cn2nc3c(OCCCCCCCC(=O)O)cccc3c2-c2cc(=O)c(C(=O)O)cn21 [I.6, (R)-6-(tert-butyl)-10-((7-carboxyheptyl)oxy)-2-oxo-6,7-dihydro-2H-pyrido[2′,1′:3,4]pyrazino[1,2-b]indazole-3-carboxylic acid]	–	–	–	2.6 ± 0.6	11.5	18.2	1.74	4.9
CC(C)(C)[C@@H]1Cn2nc3c(OCCCCCCC(=O)O)cccc3c2-c2cc(=O)c(C(=O)O)cn21 [I.2, (R)-6-(tert-butyl)-10-((6-carboxyhexyl)oxy)-2-oxo-6,7-dihydro-2H-pyrido[2′,1′:3,4]pyrazino[1,2-b]indazole-3-carboxylic acid]	–	–	–	6.5 ± 2.5	2.87	1.10	2.23	2.34
